Results published in US8859580B2 (Boehringer Ingelheim International GmbH, priority 2007, dated 2014).

Biological target: T1, 11β-HSD1 (Homo sapiens, UniProt P28845)
T1 construct: detecting cortisol generated from cortisterone by human liver microsomes; from tissue; host or cells: human liver microsomes
Test: In vitro inhibition of 11β-HSD1, HTRF detection of cortisol generated from cortisone by human liver microsomes
Format: biochemical
Settings: 11β-HSD IC50 (nM), 1 hour at 37° C., pH 6.0, NADPH 200 μM, cortisone 80 nM, inhibition relative to carbenoxolone signal
Outline: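 Cortisol formed from cortisone by human liver microsomes quantified by competitive HTRF immunoassay (XL665-cortisol, Eu-cryptate anti-cortisol antibody), 2 h detection, Em665/Em615 ratio converted via cortisol calibration curve. Percent inhibition relative to carbenoxolone signal; IC50 from curves.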

T1 sequence (P28845 whole entry): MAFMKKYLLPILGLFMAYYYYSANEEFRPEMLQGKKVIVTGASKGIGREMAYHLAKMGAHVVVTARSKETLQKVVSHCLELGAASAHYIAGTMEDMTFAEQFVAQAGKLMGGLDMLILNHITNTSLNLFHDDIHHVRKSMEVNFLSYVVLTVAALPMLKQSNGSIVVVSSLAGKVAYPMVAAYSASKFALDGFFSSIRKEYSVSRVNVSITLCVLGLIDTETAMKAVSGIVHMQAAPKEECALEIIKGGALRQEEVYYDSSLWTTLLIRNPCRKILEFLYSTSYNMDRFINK

Compared with `COC1CCN(Cc2ccc(C(=O)N3CC[C@@]4(C)c5cccc(O)c5C[C@@H]3C4(C)C)cc2)CC1` [Example 189, [(2R,6S)-10-Hydroxy-6,11,11-trimethyl-1,2,5,6-tetrahydro-4H-2,6-methano-benzo[d]azocin-3-yl]-[4-(4-methoxy-piperidin-1-ylmethyl)-phenyl]-methanone], `CC1(C)[C@H]2Cc3c(O)cccc3[C@]1(C)CCN2C(=O)c1ccc(CN2CCOCC2)cc1` [Example 24, [(2R,6S)-10-Hydroxy-6,11,11-trimethyl-1,2,5,6-tetrahydro-4H-2,6-methano-benzo[d]azocin-3-yl]-(4-morpholin-4-ylmethyl-phenyl)-methanone] is 17-fold lower in IC50: 2270 nM for the first, 134 nM for the second. The second is the more potent here.

Going from `Cc1cc2c(cc1O)[C@]1(C)CCN(C(=O)c3ccc4nc[nH]c4c3)[C@H](C2)C1(C)C` (stereo in doubt) [Example 65, (3H-Benzoimidazol-5-yl)-[(2R,6S)-8-hydroxy-6,9,11,11-tetramethyl-1,2,5,6-tetrahydro-4H-2,6-methano-benzo[d]azocin-3-yl]-methanone] to `Cn1cnc2cc3c(cc21)C[C@H]1N(C(=O)c2ccc4nc[nH]c4c2)CC[C@]3(C)C1(C)C` [Example 240, (3H-Benzoimidazol-5-yl)-[(6R,10S)-5,6,7,8,9,10-hexahydro-3,10,12,12-tetramethyl-6,10-methano-imidazo[4,5-i][3]benzazocin-7-yl]-methanone], the IC50 rises from 29 nM to 51 nM (1.8-fold).

Going from `CC1CN(Cc2ccc(C(=O)N3CC[C@@]4(C)c5cccc(O)c5C[C@@H]3C4(C)C)cc2)CCO1` (stereo partly drawn) [Example 142] to `CC1(C)[C@H]2Cc3c(O)cccc3[C@]1(C)CCN2C(=O)c1cccc2[nH]cnc12` [Example 18, (1H-Benzoimidazol-4-yl)-[(2R,6S)-10-hydroxy-6,11,11-trimethyl-1,2,5,6-tetrahydro-4H-2,6-methano-benzo[d]azocin-3-yl]-methanone], the IC50 rises from 689 nM to 3680 nM (5.3-fold).

Going from `CC(C)(O)c1ccc(C(=O)N2CC[C@@]3(C)c4ccccc4C[C@@H]2C3(C)C)cc1` [Example 306, [4-(1-Hydroxy-1-methyl-ethyl)-phenyl]-[(2R,6S)-6,11,11-trimethyl-1,2,5,6-tetrahydro-4H-2,6-methano-benzo[d]azocin-3-yl]-methanone] to `CC1(C)[C@H]2Cc3ccccc3[C@]1(C)CCN2C(=O)c1ccc2nc[nH]c2c1` (racemic) [Example 82, (3H-Benzoimidazol-5-yl)-[(2R,6S)-6,11,11-trimethyl-1,2,5,6-tetrahydro-4H-2,6-methano-benzo[d]azocin-3-yl]-methanone], the IC50 falls from 978 nM to 56 nM (17-fold).

First: Cc1cc(C(=O)N2CC[C@@]3(C)c4cccc(O)c4C[C@@H]2C3(C)C)cc2nc[nH]c12 [Example 225, [(2R,6S)-10-Hydroxy-6,11,11-trimethyl-1,2,5,6-tetrahydro-4H-2,6-methano-benzo[d]azocin-3-yl]-(7-methyl-1H-benzoimidazol-5-yl)-methanone]
Second: COc1ccc2c(c1)C[C@@H]1N(C(=O)c3ccc4nc[nH]c4c3)CC[C@@]2(C)C1(C)C [Example 147, (3H-Benzoimidazol-5-yl)-[(2S,6R)-9-methoxy-6,11,11-trimethyl-1,2,5,6-tetrahydro-4H-2,6-methano-benzo[d]azocin-3-yl]-methanone]
The IC50 of the first is 10-fold lower: 98 nM for the first, 1010 nM for the second. The first is the more potent here.

Compared with `CC1(C)[C@H]2Cc3cc4nc(-c5ccnnc5)[nH]c4cc3[C@]1(C)CCN2C(=O)c1ccc2nc[nH]c2c1` [Example 276, (3H-Benzoimidazol-5-yl)-[(6R,10S)-5,6,7,8,9,10-hexahydro-10,12,12-trimethyl-2-pyridazin-4-yl-6,10-methano-imidazo[5,4-i][3]benzazocin-7-yl]-methanone], `C[C@@H]1[C@H]2Cc3ccc(CN)cc3[C@]1(C)CCN2C(=O)c1ccc2nc[nH]c2c1` [Example 172, [(2R,6R,11S)-8-Aminomethyl-6,11-dimethyl-1,2,5,6-tetrahydro-4H-2,6-methano-benzo[d]azocin-3-yl]-(3H-benzoimidazol-5-yl)-methanone] is 51-fold higher in IC50: 34 nM for the first, 1720 nM for the second.
